US5591758A, “Organic nitrates, processes for their preparation and their use in the treatment of cardiovascular diseases” (Laboratoires Hoechst, SA, priority 1991, dated 1997)
Where a name gives a salt, the structure may show the parent alone.

Key:
thoracic aorta = assay: Vasorelaxant effect on isolated vessels (rat thoracic aorta rings without endothelium, precontracted with noradrenalin); set-up: species or system Wistar rats; conditions: for Emax: Rattus norvegicus, maximum inhibition of noradrenalin effect, 10^-8 to 10^-4 M substance, read-out: Maximum Relaxation; for IC50: rat aorta, 10^-7 M noradrenalin contraction
Protocol: Vasorelaxant effect of the compounds according to the invention on isolated vessels.
Adult Wistar rats weighing between 250 and 350 g are anaesthetised by intraperitoneal injection of sodium pentobarbital (30 mg/kg). The thoracic aorta is rapidly removed and placed in a refrigerated and oxygenated solution of bicarbonate buffer of the Krebs-Ringer type (composition [mM]: NaCl, 118; KCl, 4.7; CaCl2, 2.5; MgSO4, 1.2; KH2 PO4, 1.2; NaHCO3, 25.0; disodium calcium salt of EDTA, 0.026; glucose 11.1). The aorta is dissected with the aim of removing the connective tissue and then cut into 6 rings (length 5-10 mm). The endothelium is removed by moderate abrasion of the intimal surface of the aortic segments with the aid of a pair of tweezers. These segments are then placed between two hooks in an isolated organ cell filled with 25 ml of bicarbonate buffer (pH 7.4), thermostat-controlled at 37° C. and oxygenated with the aid of a 95% O2 /5% CO2 mixture (pH 7.4). One of the hooks is fixed to a fixed point, while the second is connected to a transducer with the aim of measuring the variations in isometric voltage (expressed in grams). After an equilibration period of 30 min., the segments are progressively withdrawn so as to attain the level of base voltage for which the contractor response to noradrenalin (10^-7 M) is maximum (optimum voltage; average 2 g). The absence of endothelium is verified by addition of a single concentration of acetylcholine (10^-6 M), after precontraction of the vessels by noradrenalin (10^-7 M). The integrity of the vascular smooth muscle is also verified by adding a single concentration of a vasodilator whose response is independent of the presence of the endothelium, SIN-1 (10^-5 M). After this initial procedure, the aortas are washed, equilibrated for a period of 30 min and then recontracted (10^-7 M noradrenalin). The relaxant effect of the substance to be tested is then evaluated by adding increasing concentrations of this substance (from 10^-8 to 10^-4 M). The maximum inhibition of the concentration caused by noradrenalin (expressed as a percentage) is then calculated ("maximum relaxation"). When this maximum relaxation is greater than 50%, the concentration of substance tested producing a 50% inhibition of the maximum contraction (IC50) is calculated. Table V below collates the IC50 and the maximum relaxation percentages for the various compounds tested.

anesthetised dogs = assay: Haemodynamic effects on anesthetised dogs; assay type: in vivo, dogs (labrador/harrier cross); conditions: dogs
Protocol: Haemodynamic effects of the compounds according to the invention on anesthetised pigs or dogs
The dogs, weighing between 16 and 26 kg, are the progeny of a labrador/harrier cross.
In the case of dogs the anesthesia is induced by sodium pentobarbitol (45 mg/jg i.v.) and maintained with an i.v. perfusion (flow rate of 8 mg/kg/h).
The pigs or dogs are placed under artificial respiration in ambient air. Analysis of the blood gases (pO2, pCO2) is carried out at regular intervals and oxygen can be supplied via the respirator, if necessary.
The haemodynamic parameters recorded include the left ventricular pressure (LVP; Millar PC350 Tip catheter inserted via the carotid artery), systemic blood pressure (BPs, BPd; full catheter in a femoral artery), the end pressure of the left ventricular diastole (LVEDP), the ventricular contractility (LVPdp/dtmax) and the heart rate (HR).
Following an equilibration period of the order of 45 minutes, the compounds studied are administered intraduodenally (i.d.) or intraveinously (i.v.) to several animals (1 to 4). The haemodynamic variables are recorded continuously for 1 to 3 hours, as a function of the period of action of the compound.
The effects of the compounds studied are shown as the absolute difference with respect to the base value (bv) measured before administration of the compounds and are shown in Table VII (a,b,c).
An antianginal activity is estimated by a fall in the BPs and the LVEDP (fall in venous return).

Structure (SMILES)	Emax (thoracic aorta) [%]	IC50 (thoracic aorta) [µM]	BPs (min), period of action (anesthetised dogs; 3 mg/kg i.d.) [min]	BPs, difference to base value (anesthetised dogs; 3 mg/kg i.d.) [mmHg]	LVEDP (min), period of action (anesthetised dogs; 3 mg/kg i.d.) [min]	LVEDP, difference to base value (anesthetised dogs; 3 mg/kg i.d.)	also measured
CC(C)(C)OC(=O)N1CSC[C@H]1C(=O)N1CCC[C@H]1C(=O)N[C@H]1CO[C@H]2[C@@H]1OC[C@@H]2O[N+](=O)[O-] [Compound 69, 5-[[[(2S)-N-[(3-t-butoxycarbonyl-4-L-thiazolidinyl)carbonyl]-2-pyrrolidinyl]carbonyl]amino]-5-deoxy-2-O-nitro-1,4:3,6-dianhydro-L-iditol]	87	42	> 150	-40	> 150	-2,5 mmHg	
O=C(N[C@H]1CO[C@H]2[C@@H]1OC[C@H]2O[N+](=O)[O-])[C@@H]1CSCN1 [Compound 40, 2-[[(4-L-Thiazolidinyl)carbonyl]amino]-2-deoxy-5-O-nitro-1,4:3,6-dianhydro-D-glucitol monohydrochloride]	38	> 100					BPs (min), period of action (anesthetised dogs; 3 mg/kg i.v.): > 90 min; BPs, difference to base value (anesthetised dogs; 3 mg/kg i.v.): -10 mmHg; LVEDP (min), period of action (anesthetised dogs; 3 mg/kg i.v.): > 90 min; LVEDP, difference to base value (anesthetised dogs; 3 mg/kg i.v.): -1,0 mmHg
NCC(=O)O[C@@H]1CO[C@H]2[C@@H]1OC[C@@H]2O[N+](=O)[O-] [Compound 3, Glycine ester of 2-O-nitro-1,4:3,6-dianhydro-D-glucitol monohydrochloride]	63	79	> 60	-10	> 60	-4,5 mmHg	
CC(C)(C)OC(=O)N1CCC[C@H]1C(=O)N[C@H]1CO[C@H]2[C@@H]1OC[C@@H]2O[N+](=O)[O-] [Compound 13, N-[(t-Butoxy)carbonyl]-L-proline amide of 5-amino-5-deoxy-2-O-nitro-1,4:3,6-dianhydro-L-iditol]	74	49	> 120	-30			
CC(=O)NCSC[C@H](NC(=O)OC(C)(C)C)C(=O)O[C@@H]1CO[C@H]2[C@@H]1OC[C@@H]2O[N+](=O)[O-] [Compound 26, S-[(Acetylamino)methyl]-N-[(t-butoxy)carbonyl]-L-cysteine ester of 2-O-nitro-1,4:3,6-dianhydro-D-glucitol]	70	80					BPs (min), period of action (anesthetised dogs; 10 mg/kg i.v.): > 90 min; BPs, difference to base value (anesthetised dogs; 10 mg/kg i.v.): -10 mmHg; LVEDP (min), period of action (anesthetised dogs; 10 mg/kg i.v.): > 90 min; LVEDP, difference to base value (anesthetised dogs; 10 mg/kg i.v.): 2,0 mmHg
CC(C)(C)OC(=O)N1CSC[C@H]1C(=O)N[C@@H](Cc1ccccc1)C(=O)N[C@H]1CO[C@H]2[C@@H]1OC[C@@H]2O[N+](=O)[O-] [Compound 65, 5-[[2-[[(3-t-butoxycarbonyl-4-L-thiazolidinyl)carbonyl]amino]-1-((2S)-2-benzyl)-oxoethyl]amino]-5-deoxy-2-O-nitro-1,4:3,6-dianhydro-L-iditol]	100	20	0	0	30	1,0 mmHg	
CC(C)[C@H](NC(=O)OC(C)(C)C)C(=O)N[C@H]1CO[C@H]2[C@@H]1OC[C@@H]2O[N+](=O)[O-] [Compound 9, N-[(t-Butoxy)carbonyl]-L-valine amide of 5-amino-5-deoxy-2-O-nitro-1,4:3,6-dianhydro-L-iditol]	70	80	> 60	5	0	0,0 mmHg	
CC(C)(C)OC(=O)N[C@@H](CSSc1ccccc1[N+](=O)[O-])C(=O)N[C@H]1CO[C@H]2[C@@H]1OC[C@@H]2O[N+](=O)[O-] [Compound 35, S-[(2-Nitrophenyl)thio]-N-[(t-butoxy)carbonyl]-L-cysteine amide of 5-amino-5-deoxy-2-O-nitro-1,4:3,6-dianhydro-L-iditol]	46	100					BPs (min), period of action (anesthetised dogs; 3 mg/kg i.v.): > 30 min; BPs, difference to base value (anesthetised dogs; 3 mg/kg i.v.): -10 mmHg; LVEDP (min), period of action (anesthetised dogs; 3 mg/kg i.v.): 0 min; LVEDP, difference to base value (anesthetised dogs; 3 mg/kg i.v.): 0,0 mmHg
N[C@@H](Cc1ccccc1)C(=O)N[C@H]1CO[C@H]2[C@@H]1OC[C@@H]2O[N+](=O)[O-] [Compound 12, L-phenylalanine amide of 5-amino-5-deoxy-2-O-nitro-1,4:3,6-dianhydro-L-iditol monohydrochloride]	100	2.5	> 240	-30			
CC(C)(C)OC(=O)NCC(=O)O[C@H]1CO[C@H]2[C@@H]1OC[C@H]2O[N+](=O)[O-] [Compound 1, N-[(t-Butoxy)carbonyl]glycine ester of 5-O-nitro-1,4:3,6-dianhydro-D-glucitol]	83	32					BPs (min), period of action (anesthetised dogs; 3 mg/kg i.v.): 10 min; BPs, difference to base value (anesthetised dogs; 3 mg/kg i.v.): 5 mmHg; LVEDP (min), period of action (anesthetised dogs; 3 mg/kg i.v.): 10 min; LVEDP, difference to base value (anesthetised dogs; 3 mg/kg i.v.): 1,0 mmHg
CSCC[C@H](NC(=O)OC(C)(C)C)C(=O)N[C@H]1CO[C@H]2[C@@H]1OC[C@H]2O[N+](=O)[O-] [Compound 43, N-[(t-Butoxy)carbonyl]-L-methionine amide of 2-amino-2-deoxy-5-O-nitro-1,4:3,6-dianhydro-D-glucitol]	80	32					BPs (min), period of action (anesthetised dogs; 10 mg/kg i.v.): 90 min; BPs, difference to base value (anesthetised dogs; 10 mg/kg i.v.): -20 mmHg; LVEDP (min), period of action (anesthetised dogs; 10 mg/kg i.v.): 60 min; LVEDP, difference to base value (anesthetised dogs; 10 mg/kg i.v.): -1,0 mmHg
CSCC[C@H](NC(=O)[C@@H]1CSCN1)C(=O)N[C@H]1CO[C@H]2[C@@H]1OC[C@@H]2O[N+](=O)[O-] [Compound 68, 5-[[2-[[(4-n-thiazolidinyl)carbonyl]amino]-1-((2S)-2-(2'-thiomethyl)-ethyl)-oxoethyl]amino]-5-deoxy-2-O-nitro-1,4:3,6-dianhydro-L-iditol monohydrochloride]	90	29					BPs (min), period of action (anesthetised dogs; 1 mg/kg i.d.): > 180 min; BPs, difference to base value (anesthetised dogs; 1 mg/kg i.d.): -30 mmHg; LVEDP (min), period of action (anesthetised dogs; 1 mg/kg i.d.): > 180 min; LVEDP, difference to base value (anesthetised dogs; 1 mg/kg i.d.): -3,0 mmHg
O=C(CNC(=O)[C@@H]1CSCN1)N[C@H]1CO[C@H]2[C@@H]1OC[C@H]2O[N+](=O)[O-] [Compound 71, 2-[[2-[[(4-L-thiazolidinyl)carbonyl]]amino]-1-oxoethyl]amino]-2-deoxy-5-O-nitro-1,4:3,6-dianhydro-D-glucitol monohydrochloride]	66	70	0	0	> 60	-5,5 mmHg	
CC(C)(C)OC(=O)NCC(=O)N[C@H]1CO[C@H]2[C@@H]1OC[C@H]2O[N+](=O)[O-] [Compound 15, N-[(t-Butoxy)carbonyl]glycine amide of 2-amino-2-deoxy-5-O-nitro-1,4:3,6-dianhydro-D-glucitol]	58	60	> 180	-20	> 180	-3,0 mmHg	
CC(C)[C@H](NC(=O)[C@@H]1CSCN1)C(=O)N[C@H]1CO[C@H]2[C@@H]1OC[C@@H]2O[N+](=O)[O-] [Compound 64, 5-[[2-[[(4-L-thiazolidinyl)carbonyl]amino]-1-((2S)-2-isopropyl)-oxoethyl]amino]-5-deoxy-2-O-nitro-1,4:3,6-dianhydro-L-iditol monohydrochloride]	84	51	> 180	-25	150	-2,0 mmHg	
